Assay results reported in PMC5645128, “Hydrophobic residues are critical for the helix-forming, hemolytic and bactericidal activities of amphipathic antimicrobial peptide TP4” (PLoS ONE, 2017).
Values after ≈ are worked out from the molar mass of the structure shown. Ends that are not written are not given here.

Assays:
C. albicans = format: cell-based, Candida albicans
Protocol: (§1) All the tested microbes were cultured at 37°C except C. albicans (30°C) in respective medium. 90 μl of cell suspension (2–4 x10^6 cfu/ml) mixed with 10 μl of diluted TP4 were loaded in 96-well microplate and incubated overnight with gentle agitation at 100 rpm. The absorbance of TP4-treated bacteria in 96-well plate was measured by SpectraMax 190 microplate reader at 600 nm. The remaining cfu in the TP4-treated sample was determined by plating on agar plates. Minimum inhibitory concentration (MIC) was defined as the lowest AMP concentration in order to keep the solution with the same absorbance as that of culture medium. Minimum bactericidal concentration (MBC) was defined as the lowest AMP concentration able to kill 99.99% of microorganisms. At least three independent experiments were performed to determine the average value with standard deviation.

S. aureus = format: cell-based, Staphylococcus aureus
Protocol: as §1

P. aeruginosa = format: cell-based, Pseudomonas aeruginosa
Protocol: as §1

MRSA = format: cell-based, methicillin-resistant Staphylococcus aureus
Protocol: as §1

mouse red blood cells = format: cell-based
Protocol: For blood collection, cardiac puncture was performed on anesthetized mice (by 3% isoflurane) by a 1 ml heparin-rinsed syringe with a 22 gauge needle. After blood collection, the animals were euthanized by cervical dislocation. Fresh mouse blood was rinsed three times with PBS, centrifuged for 5 minutes at 1500 rpm and re-suspended in PBS (1:30 dilution). The diluted erythrocyte (150 μl) was incubated with TP4-derived peptides at 37°C for 3 hr and centrifuged at 120x g for 5 minutes. The supernatants (100 μl) were transferred to a 96-well plate and the absorbance of released hemoglobin was measured by SpectraMax 190 microplate reader at 414 nm. Percent hemolysis was calculated by the following formula: % hemolysis = [(A414in the peptide solution−A414in PBS)/(A414in 0.1% Triton-X 100 –A414in PBS)]. Zero and 100% hemolysis were determined in PBS and 0.1% Triton-X 100, respectively.
Fig 8 Hemolytic activity of TP4-derived peptides. Diluted mouse red blood cells (150 μl) was incubated with TP4-derived peptides at 37°C for 3 hr and spun at 120 x g for 5 minutes. The supernatants (100 μl) were transferred to a 96-well plate for measurement of released hemoglobulin at 414 nm by the SpectraMax 190 microplate reader.

[1] = format: physicochemical
Protocol: Fig 4 Hydrophobicity and solubility of TP4 in the presence of sarkosyl and LPS. (A) ANS emission spectrum of TP4 in solution containing sarkosyl. TP4 (4 μg) was dissolved in 200 μl of 10 mM sodium phosphate, pH7.4, 0.1 M NaCl, containing various concentrations of sarkosyl (0.075%, w/v, designated as 1x). (B) ANS emission spectrum of TP4 in solution containing LPS. TP4 (4 μg) was dissolved in 200 μl of 10 mM sodium phosphate, pH7.4, containing various amounts of LPS as indicated. ANS was added stepwise to the final concentrations as indicated (lines 1 to 6 at 0, 10, 20, 30, 40 and 50 μM, respectively). Arrows indicate the emission maximum at 470 nm or 520 nm for bound- and free-form ANS, respectively. (C, D) Solubility of TP4 in solution containing either sarkosyl or LPS. TP4 (4 μg) dissolved in 200 μl of respective solution containing sarkosyl or LPS at concentration as indicated was spun at 14,000 x g for 15 min and analyzed by SDS-PAGE/Coomassie blue staining.
Fig 9 OprI-binding ability of TP4-derived peptides. (A) Competition for OprI binding by TP4-derived peptides. […] The gel pellet was analyzed by non-reducing SDS-PAGE/Coomassie blue staining. rOprI, recombinant OprI; S.t, Streptavidin. […] TP4-derived peptides (6 μg each) dissolved in 1x sarkosyl buffer (300 μl) were incubated at 37°C for 10 min, then spun at 14,000 x g for 15 min and analyzed by SDS-PAGE/Coomassie blue staining. […]

Compound | MBC (C. albicans) [µg/mL] | MIC (C. albicans) [µg/mL] | MBC (S. aureus) [µg/mL] | MIC (S. aureus) [µg/mL] | MBC (P. aeruginosa) [µg/mL] | MIC (P. aeruginosa) [µg/mL] | MBC (MRSA) [µg/mL] | MIC (MRSA) [µg/mL] | hemolytic activity compared with wild type TP4 (mouse red blood cells) | solubility of TP4 in 1x Sar [1]
FIHHIIGGLFSAGKAEHRLIRRRRR [I16E] | 128 | 128 | >512 | >512 | >512 | >512 | >512 | >512 |  | 
IIGGLFSAGKAIHRLIRRRRR [dN4] | 128 | 64 | 128 | 128 | >512 | 256 | 256 | 64 |  | 
FIHHIIGGLFSAGKAIHRLIRRR [dC2] | 128 | 128 | 32 | 16 | >512 | 512 | 32 | 32 |  | 
FIHHIIGGLFSAGKAIHRHHRRRRR [L19H/I20H] | 128 | 128 | 512 | 128 | >512 | 256 | >512 | >512 |  | 
FIHHIIGGLFSVGKHIHSLIHGH [TP3, reference compound] | 128 | 128 | 256 | 256 | >512 | >512 | >512 | 256 |  | 
FIHHIIGGLFSVGKHIHSLIHRRRR [VHSH] | 128 | 128 | 16 | 16 | >512 | >512 | 32 | 16 |  | 
FIHHIIGGLFSAGKAIHSLIHRRRR [R18S/R21H] | 512 | 256 | 64 | 32 | 512 | 256 | 32 | 32 |  | 
FIHHIIGGAASAGKAIHRLIRRRRR [L9A/F10A] | 128 | 128 | >512 | >512 | >512 | >512 | >512 | >512 |  | 
FIHHAAGGLFSAGKAIHRLIRRRRR [I5A/I6A] | 128 | 128 | >512 | >512 | 512 | 512 | >512 | >512 |  | 
FIHHIIGGLFSAGKARHRLIRRRRR [I16R] | 256 | 128 | >512 | >512 | >512 | >512 | >512 | >512 |  | 
FIHHIIGGLFSVGKHIHRLIRRRRR [A12V/A15H] | 128 | 128 | 16 | 16 | 128 | 128 | 64 | 32 |  | 
AAHHIIGGLFSAGKAIHRLIRRRRR [F1A/I2A] | 128 | 64 | 256 | 128 | 256 | 256 | >512 | >512 |  | 
CC[C@H](C)[C@H](NC(=O)[C@H](CO)NC(=O)[C@H](Cc1ccccc1)NC(=O)[C@H](CC(C)C)NC(=O)CNC(=O)CNC(=O)[C@@H](NC(=O)[C@@H](NC(=O)[C@H](Cc1c[nH]cn1)NC(=O)[C@H](Cc1c[nH]cn1)NC(=O)[C@@H](NC(=O)[C@@H](N)Cc1ccccc1)[C@@H](C)CC)[C@@H](C)CC)[C@@H](C)CC)C(=O)NCC(=O)N[C@@H](CCCCN)C(=O)N[C@H](C(=O)N[C@H](C(=O)N[C@@H](Cc1c[nH]cn1)C(=O)N[C@@H](CCCNC(=N)N)C(=O)N[C@@H](CC(C)C)C(=O)N[C@H](C(=O)N[C@@H](CCCNC(=N)N)C(=O)N[C@@H](CCCNC(=N)N)C(=O)N[C@@H](CCCNC(=N)N)C(=O)N[C@@H](CCCNC(=N)N)C(=O)N[C@@H](CCCNC(=N)N)C(=O)O)[C@@H](C)CC)[C@@H](C)CC)[C@@H](C)CC [A12I/A15I] | 128 (≈ 41.8 µM) | 128 (≈ 41.8 µM) | 64 (≈ 20.9 µM) | 16 (≈ 5.22 µM) | >512 | 512 (≈ 167 µM) | 256 (≈ 83.5 µM) | 64 (≈ 20.9 µM) | four times higher activity than wild type TP4 | 
FIHHIIGGLFSAGKAIHRLIR [dC4] | 256 | 128 | 128 | 64 | >512 | >512 | 256 | 256 |  | 
FIAAIIGGLFSAGKAIHRLIRRRRR [H3A/H4A] | 512 | 512 | 32 | 32 | >512 | >512 | 256 | 128 |  | 
FIHHIIGGLFSAGKAIHRLIRRRRR [TP4] [listing 1 of 2 here] |  |  |  |  |  |  |  |  |  | less than 80 μM
FIHHIIGGLFSAGKAIHRLIRRRRR [TP4] [listing 2 of 2 here] | 128 | 128 | 16 | 8 | 128 | 64 | 32 | 16 |  | 
HHIIGGLFSAGKAIHRLIRRRRR [dN2] | 128 | 128 | 512 | 512 | >512 | 512 | >512 | >512 |  | 
FIHHIIGGLFSAGKAAHRLIRRRRR [I16A] | 128 | 128 | 128 | 64 | >512 | 256 | 512 | 64 |  | 
